Molecular target: Serine/threonine-protein kinase mTOR (Homo sapiens, UniProt P42345)
Assay: Inhibition of recombinant mTOR assessed as inhibition of S6K T389 phosphorylation by DELFIA assay

Work on `COC(=O)Nc1ccc(-c2nc(N3CCOCC3)c3cnn(C4CCN(C(=O)OC)CC4)c3n2)cc1` yielded an IC50 of 5 nM.

— ChEMBL document CHEMBL1800032, “Allosteric and ATP-competitive kinase inhibitors of mTOR for cancer treatment” (Bioorg Med Chem Lett, 2010)
